In patent publication US20220280644A1, “"TRPswitch" - A STEP FUNCTION CHEMO-OPTOGENETIC LIGAND” (UNIVERSITY OF UTAH RESEARCH FOUNDATION, priority 2019, published 2022):

What was measured:
[1] = target: T1, human TRPA1 (Homo sapiens, UniProt O75762); test: Rescue experiment, Trpa1b−/− embryos expressing hTRPA1 in Rohon-beard neurons; assay type: in vivo, zebrafish; conditions: 20 μM, motion within 5 s after 1 s WL3
T1 construct: 2A peptide (remnant stays on the channel) (C); EGFP (separated at the 2A site) (C, cleaved yes); expressed in transfected cells; host or cells: Rohon-Beard neurons of Trpa1b−/− zebrafish embryos, in vivo
T1 sequence (O75762 whole entry): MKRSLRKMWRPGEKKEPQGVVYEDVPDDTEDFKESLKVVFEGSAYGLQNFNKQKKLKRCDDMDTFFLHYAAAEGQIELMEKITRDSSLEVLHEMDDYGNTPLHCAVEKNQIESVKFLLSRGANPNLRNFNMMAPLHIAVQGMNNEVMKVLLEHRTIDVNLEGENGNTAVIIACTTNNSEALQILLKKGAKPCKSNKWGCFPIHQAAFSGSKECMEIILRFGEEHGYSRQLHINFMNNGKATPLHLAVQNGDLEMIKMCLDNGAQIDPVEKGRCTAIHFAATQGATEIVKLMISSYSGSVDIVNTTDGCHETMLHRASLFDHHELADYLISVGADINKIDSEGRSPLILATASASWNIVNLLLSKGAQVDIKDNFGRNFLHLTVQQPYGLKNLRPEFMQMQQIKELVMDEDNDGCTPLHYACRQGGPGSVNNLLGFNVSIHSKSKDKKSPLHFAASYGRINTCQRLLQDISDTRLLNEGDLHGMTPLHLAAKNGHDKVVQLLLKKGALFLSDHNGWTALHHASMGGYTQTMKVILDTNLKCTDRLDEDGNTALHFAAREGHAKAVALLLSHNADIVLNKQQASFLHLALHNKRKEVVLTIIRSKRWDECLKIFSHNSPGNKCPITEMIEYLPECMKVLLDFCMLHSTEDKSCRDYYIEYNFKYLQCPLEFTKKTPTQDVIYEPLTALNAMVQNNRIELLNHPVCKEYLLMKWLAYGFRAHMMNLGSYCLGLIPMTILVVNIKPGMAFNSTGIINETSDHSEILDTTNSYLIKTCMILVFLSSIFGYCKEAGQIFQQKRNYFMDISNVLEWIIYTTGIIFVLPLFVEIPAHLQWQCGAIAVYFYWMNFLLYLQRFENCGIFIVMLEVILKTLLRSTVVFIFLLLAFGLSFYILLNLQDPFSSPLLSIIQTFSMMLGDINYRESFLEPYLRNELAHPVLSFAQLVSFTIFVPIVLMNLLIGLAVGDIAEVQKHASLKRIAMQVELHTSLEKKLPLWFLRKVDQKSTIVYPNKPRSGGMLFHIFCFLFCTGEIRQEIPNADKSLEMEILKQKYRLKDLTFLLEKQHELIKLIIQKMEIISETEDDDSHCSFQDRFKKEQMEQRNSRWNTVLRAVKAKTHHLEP
Description: (§1) For Trpa1b ohnolog and paralog rescue experiments, Trpa1b^−/− embryos were injected with ngn1:zTrpa1b-2A-mCherry (partial plasmid sequence in SEQ ID NO:5), ngn1:zTrpa1a-2A-mCherry, ngn1:hTRPA1-2A-EGFP or ngn1:mTRPA1-2A-mCherry at the 1-cell stage for mosaic Rohon-beard neuron expression. Embryos were screened at 2 dpf for fluorescent expression in Rohon-beard neurons, incubated with 20 μM TRPswitch-B for 1 hr and decapitated posterior to the eyes right before experiments. NA 0.25 5× objective and 1 s WL3 light illumination was used.
(§2) To test the potential cross activity of TRPswitch-B on the zebrafish ohnolog Trpa1a and on mammalian orthologs, zebrafish Trpa1a, mouse TRPA1 or human TRPA1 were transiently re-expressed in the Rohon-beard neurons of mutant Trpa1b^−/− zebrafish and performed light-induced motion response experiments in the presence of TRPswitch-B. Rescue experiments were performed in Trpa1b^−/− zebrafish with transient mosaic re-expression of zebrafish Trpa1b (zTrpa1b), zebrafish Trpa1a (zTrpa1a), mouse TRPA1 (mTRPA1) or human TRPA1 (hTRAP1) in Rohon-beard neurons. Embryos were pre-treated with 20 μM TRPswitch-B and decapitated right before light stimulation to eliminate the light response mediated by the retina (Table 5). […]

[2] = tested on: Trpa1b−/− embryos; test: Rescue experiment, Trpa1b−/− embryos without re-expression; assay type: in vivo, zebrafish; conditions: 20 μM, motion within 5 s after 1 s WL3
Description: as §1, §2

[3] = Photostationary state (PSS) determination; assay type: physicochemical
Excerpt: […] In the latter case, the pure Z isomer spectrum was estimated using methods described in previous publications.

[4] = tested on: WT embryos; test: Rescue experiment, WT embryos; assay type: in vivo, zebrafish; conditions: 20 μM, motion within 5 s after 1 s WL3
Description: as §1, §2

[5] = tested on: zebrafish Trpa1b; test: Whole cell current in CCD-18Co cells transfected with zebrafish Trpa1b; assay type: cell-based; conditions: CCD-18Co transfected with zTrpa1b
Description: Immortalized HEK293T cells or human colonic fibroblast cells (CCD-18Co; ATCC) were used. HEK293T cells were plated on […] cover slips and transiently transfected with 10 μg of Trpa1b plasmid (pCMV-zTrpa1b-FLAG) (SEQ ID NO:3) and 5 μg of mNeonGreen cDNA (Allele Biotechnology), then grown in a 6 cm plate for 24-48 h. CCD-18Co were cultured in Eagle's minimal essential medium with 10% FBS, 1× penicillin and streptomycin. CCD-18Co cells were plated on 12 mm cover slips and transiently transfected with 5 μg of zTrpa1b plasmid (pCMV-zTrpa1b-FLAG) together with 5 μg of mNeonGreen cDNA (Allele Biotechnology), then grown in a […] plate for 48-72 h. After this time, the cover slips were transferred to a recording chamber containing an extracellular solution composed of 145 mM sodium gluconate, 4 mM KCl, 3 mM MgCl2, 10 mM D-glucose, 10 mM HEPES; pH 7.4 adjusted with NaOH. The internal solution contained 122 mM cesium methane sulfonate, 1.8 mM MgCl2, 9 mM EGTA, 14 mM creatine phosphate (sodium salt), 4 mM Mg-ATP, 0.3 mM Na-GTP, 10 mM HEPES, pH 7.2 adjusted with CsOH. […] Whole cell currents were measured on an Axopatch 200B amplifier (Molecular De-vices) under the control of pClamp software. […] Basal Trpa1b whole cell currents were measured with a ramp protocol (˜100 to +100 mV, at a holding potential of 0 mV). […] The p values were calculated using a two-tailed, paired Student's t-test.

[6] = target: T2, mouse TRPA1 (mTRPA1) (Mus musculus, UniProt Q8BLA8); test: Rescue experiment, Trpa1b−/− embryos expressing mTRPA1 in Rohon-beard neurons; assay type: in vivo, zebrafish; conditions: 20 μM, motion within 5 s after 1 s WL3
T2 construct: 2A peptide (remnant stays on the channel) (C); mCherry (separated at the 2A site) (C, cleaved yes); expressed in transfected cells; host or cells: Rohon-Beard neurons of Trpa1b−/− zebrafish embryos, in vivo
T2 sequence (Q8BLA8 whole entry): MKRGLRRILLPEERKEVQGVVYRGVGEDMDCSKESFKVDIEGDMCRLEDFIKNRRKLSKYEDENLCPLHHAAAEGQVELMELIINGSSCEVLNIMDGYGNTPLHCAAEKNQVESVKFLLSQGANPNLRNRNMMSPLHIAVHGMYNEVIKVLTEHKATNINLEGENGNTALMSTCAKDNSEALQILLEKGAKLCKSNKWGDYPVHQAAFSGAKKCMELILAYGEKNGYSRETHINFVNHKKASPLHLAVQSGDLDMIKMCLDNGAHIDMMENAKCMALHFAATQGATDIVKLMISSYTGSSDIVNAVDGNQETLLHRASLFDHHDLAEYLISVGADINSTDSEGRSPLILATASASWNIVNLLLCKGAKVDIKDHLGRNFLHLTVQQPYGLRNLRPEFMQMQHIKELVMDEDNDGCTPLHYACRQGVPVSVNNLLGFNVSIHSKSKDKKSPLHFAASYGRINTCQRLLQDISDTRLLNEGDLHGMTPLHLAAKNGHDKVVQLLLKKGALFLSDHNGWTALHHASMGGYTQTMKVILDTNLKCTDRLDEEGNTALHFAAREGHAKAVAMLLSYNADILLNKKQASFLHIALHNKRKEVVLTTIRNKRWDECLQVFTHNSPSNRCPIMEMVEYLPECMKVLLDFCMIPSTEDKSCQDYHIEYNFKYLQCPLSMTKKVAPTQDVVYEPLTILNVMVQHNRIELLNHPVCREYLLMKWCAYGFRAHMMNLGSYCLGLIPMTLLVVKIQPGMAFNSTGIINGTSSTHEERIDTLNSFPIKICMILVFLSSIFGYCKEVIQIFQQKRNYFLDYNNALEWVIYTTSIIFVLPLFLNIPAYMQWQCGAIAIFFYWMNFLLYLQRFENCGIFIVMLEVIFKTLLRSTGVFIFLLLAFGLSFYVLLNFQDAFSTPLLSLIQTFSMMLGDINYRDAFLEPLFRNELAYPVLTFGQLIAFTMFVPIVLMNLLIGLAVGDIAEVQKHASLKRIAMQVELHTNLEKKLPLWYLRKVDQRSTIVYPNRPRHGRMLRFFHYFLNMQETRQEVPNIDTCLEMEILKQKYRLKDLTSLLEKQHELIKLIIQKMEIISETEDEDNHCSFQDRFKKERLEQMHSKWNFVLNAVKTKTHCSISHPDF
Description: as §1, §2

[7] = tested on: larvae that lack exogenous expression of Trpa1b in cardiomyocytes; test: Heartbeat experiment in larvae that lack exogenous expression of Trpa1b in cardiomyocytes; assay type: in vivo, zebrafish; conditions: no exogenous Trpa1b in cardiomyocytes
[8] = tested on: Trpa1b; test: Heartbeat interruption in larvae expressing Trpa1b in cardiomyocytes; assay type: in vivo, zebrafish; conditions: 20 μM
Description: Heartbeat interruption experiments were performed in vivo on 2 dpf Tg(cm/c2:Trpa1b-2A-EGFP) larvae in a Trpa1b^−/− background. Larvae were pretreated with 20 μM of TRPswitch-A or TRPswitch-B in E3 at a final concentration of 1% DMSO for 1 h in the dark at 28.5° C. before experimental manipulation. Immediately prior to the onset of experiments, E3 solution was replaced with 0.2 mg/mL tricaine (Sigma, A5040) in E3 for anesthetizing the larvae. Violet light (352-402 nm) and green light (500-600 nm) were used for E to Z and Z to E isomerization, respectively. Violet and green light excitation were achieved using a band pass filter FF01-377/50 and an et500lp long pass barrier filter, respectively, together with a t600plxxr dichroic mirror and a 300-Watt xenon bulb light source (Sutter Instrument). Experiments were performed using a NA 0.6 40× air objective at room temperature. The zebrafish heart in the whole field of view was illuminated with 1 s violet light followed by various lengths of green light as indicated. Ventricle width measurement was performed using the ImageJ ‘measure’ function on the widest outer ventricle width every 100 ms.

[9] = tested on: zebrafish Trpa1b (zTrpa1b); test: Rescue experiment, Trpa1b−/− embryos re-expressing zTrpa1b in Rohon-beard neurons; assay type: in vivo; conditions: 20 μM, motion within 5 s after 1 s WL3
Description: as §1, §2

[10] = UV-Vis spectroscopy in 30% water:DMSO, extrapolated pure Z spectrum, listed as TRPswitch-B

For `Cc1nn(C)c(C)c1/N=N/c1ccc(NC(=O)c2cccs2)cc1NC(=O)c1cccs1` [Compound 9, (E)-N,N′-(4-((1,3,5-trimethyl-1H-pyrazol-4-yl)diazenyl)-1,3-phenylene)bis(thiophene-2-carboxamide)], the “% response” value [1] was 0%, the “% response” value [2] was 0% and the “365 nm PSS (E-Z)” value ([3]; 1H NMR in DMSO-d6) was 92% Z. The “420 nm PSS (E-Z)” value ([3]; 1H NMR in DMSO-d6) was 55% Z, the “495 nm PSS (Z-E)” value ([3]; 1H NMR in DMSO-d6) was 86% E and the “Estimated 365 nm PSS (E-Z)” value [3, 10] was 92% Z. For the same molecule, the “Estimated 495 nm PSS (Z-E)” value [3, 10] was 100% E, the “% response” value [4] was 65% and the “photocurrent on green light” value [5] was “green light-induced decrease in photocurrent”. For the same molecule, the “photocurrent on violet light” value [5] was “violet light-induced photocurrent”, the “% response” value [6] was 0% and the “heartbeat switching with light illumination” value [7] was “negative results”. The “ventricle heartbeat after 1 s violet light” value ([8]; 1 h pre-incubation) was “could be stopped”, the “ventricular rhythm after 1 s green light” value ([8]; after violet light) was “re-stored” and the “% response” value [9] was 38.5%.
